The record followed here is patent US20230075138A1 (priority 2021, published 2023).

The subject of test [1] is COVID-19. The test can be described thus: IL-6 level / ICU duration quadrants of COVID-19 ICU patients after therapeutic administration. In kind it is in vivo, human. Conditions: for patient count in quadrant Q2 / proportion of patients in quadrant Q2: Q2: ICU ≥15 days or deceased and IL-6 <10 pg/mL; for patients in Q3: Q3: ICU <15 d and IL-6 ≥10 pg/mL; for Proportion of Group − Proportion of Other: cohort vs patients not taking the drug class. As to the method:
Four categories of patient IL-6 level/ICU stay length were defined (i.e. the 4 quadrants described in Table 2). For each drug class with at least 10 patients, and for each quadrant with nonzero number of patients, the proportion of patients in the quadrant out of those taking a drug from the class were compared to the proportion of patients in the quadrant out of those not taking a drug from the class. Fisher exact test was performed to compute p-values on these proportion comparisons. A Benjamini-Hochberg adjustment was also applied to these p-values for multiple hypotheses.
Because only 10 patients met the aforementioned criteria, 10 additional COVID positive, ICU patients who only had IL-6 measured post-corticosteroid administration were also examined. Their IL-6 levels were plotted against the duration of ICU stay (see FIG. 3). Similarly, patients who received tocilizumab (n=5), azithromycin (n=49), hydroxychloroquine (n=10), and antivirals (lopinavir-ritonavir and ribavirin, n=4) were also examined. Patients were grouped into the following four categories based on IL-6 level, ICU status, and mortality: • (Q1) ICU<15 d and IL-6<10 pg/mL, • (Q2) ICU≥15 d or deceased and IL-6<10 pg/mL, • (Q3) ICU<15 d and IL-6≥10 pg/mL, and • (Q4) ICU≥15 d or deceased and IL-6≥10 pg/mL. […] As a corollary, corticosteroids have fewer patients (30%, n=20) in Q3 compared to tocilizumab (80%, n=5), azithromycin (61%, n=49), and hydroxychloroquine (60%, n=10). (See Table 2)

In test [2] the test system is COVID-19. Nature of the test: Kaplan-Meier survival of COVID-19 positive patients hospitalized at the Mayo Clinic, by drug cohort. In kind it is in vivo, human.
Where [3] appears, read: Q1: ICU <15 days and IL-6 <10 pg/mL.
[4] abbreviates: Q3: ICU <15 days and IL-6 ≥10 pg/mL.
[5] abbreviates: Q4: ICU ≥15 days or deceased and IL-6 ≥10 pg/mL.
Where [6] appears, read: COVID-19 patients requiring ICU admission.
Setting [7] is: all hospitalized COVID-19 patients.

As to `CC[C@H]1OC(=O)[C@H](C)[C@@H](O[C@H]2C[C@@](C)(OC)[C@@H](O)[C@H](C)O2)[C@H](C)[C@@H](O[C@@H]2O[C@H](C)C[C@H](N(C)C)[C@H]2O)[C@](C)(O)C[C@@H](C)CN(C)[C@H](C)[C@@H](O)[C@]1(C)O` [azithromycin], the “patient count in quadrant Q1” value in the test with COVID-19 [1] (setting [3]) worked out at 4. Further, the “patient count in quadrant Q2” value in the test with COVID-19 [1] is given as 0. The “proportion of patients in quadrant Q2” value in the test on COVID-19 [1] is on record as “(0)”. For the same compound, the “patients in Q3” value in the test on COVID-19 [1] is 61%. Besides, in the test with COVID-19 [1] (setting [4]), the “patient count in quadrant Q3” value was determined as 30. In addition, the “patient count in quadrant Q4” value in the test with COVID-19 [1] (setting [5]) was 15. In addition, the “Proportion of Group − Proportion of Other” value in the test with COVID-19 [1] (quadrant Q1) is on record as −0.10; in the test on COVID-19 [1] (quadrant Q3), 0.17; in the test on COVID-19 [1] (quadrant Q4), −0.07. The “survival rate at 60 days post-diagnosis” value with COVID-19 [2] (setting [6]) is reported as 92%; in the test with COVID-19 [2] (setting [7]) it was 93%.
In the case of `C[C@@H]1C[C@H]2[C@@H]3CCC4=CC(=O)C=C[C@]4(C)[C@@]3(F)[C@@H](O)C[C@]2(C)[C@@]1(O)C(=O)CO` [dexamethasone], the “survival rate at 60 days post-diagnosis” value with COVID-19 [2] (setting [6]) worked out at 72%; with COVID-19 [2] (setting [7]) it was 90%.
On to `C[C@]12CCC(=O)C=C1CC[C@@H]1[C@@H]2[C@@H](O)C[C@@]2(C)[C@H]1CC[C@]2(O)C(=O)CO` [hydrocortisone], for which the “survival rate at 60 days post-diagnosis” value with COVID-19 [2] (setting [7]) is given as 79%.
As to `CCN(CCO)CCCC(C)Nc1ccnc2cc(Cl)ccc12` (stereo not drawn) [hydroxychloroquine], in the test with COVID-19 [1] (setting [3]), the “patient count in quadrant Q1” value is given as 2. Further, in the test with COVID-19 [1], the “patient count in quadrant Q2” value is listed as 0. Besides, the “proportion of patients in quadrant Q2” value in the test on COVID-19 [1] was “(0)”. Moreover, the “patients in Q3” value in the test on COVID-19 [1] turned out to be 60%. For the same compound, in the test with COVID-19 [1] (setting [4]), the “patient count in quadrant Q3” value came to 6. In addition, in the test on COVID-19 [1] (setting [5]), the “patient count in quadrant Q4” value is recorded as 2. Further, the “Proportion of Group − Proportion of Other” value is listed as 0.08 with COVID-19 [1] (quadrant Q1), 0.05 with COVID-19 [1] (quadrant Q3) and −0.13 with COVID-19 [1] (quadrant Q4). Also, the “survival rate at 60 days post-diagnosis” value in the test with COVID-19 [2] (setting [6]) is on record as 100%.
As for `C[C@H]1C[C@@H]2[C@H]([C@@H](O)C[C@@]3(C)[C@H]2CC[C@]3(O)C(=O)CO)[C@@]2(C)C=CC(=O)C=C12` [methylprednisolone], the “survival rate at 60 days post-diagnosis” value with COVID-19 [2] (human, in vivo) was 77%.
For the compound `C[C@]12C=CC(=O)C=C1CC[C@@H]1[C@@H]2C(=O)C[C@@]2(C)[C@H]1CC[C@]2(O)C(=O)CO` [prednisone], the “survival rate at 60 days post-diagnosis” value with COVID-19 [2] (setting [7]) was 92%.
Consider tocilizumab, for which, in the test on COVID-19 [1] (setting [3]), the “patient count in quadrant Q1” value is 0 and the “proportion of patients in quadrant Q1” value was “(0)”. Also, in the test on COVID-19 [1], the “patient count in quadrant Q2” value was 0, the “proportion of patients in quadrant Q2” value is “(0)” and the “patients in Q3” value worked out at 80%. Besides, in the test with COVID-19 [1] (setting [4]), the “patient count in quadrant Q3” value is recorded as 4 and the “proportion of patients in quadrant Q3” value is on record as “(0.8)”. Further, in the test with COVID-19 [1] (setting [5]), the “patient count in quadrant Q4” value worked out at 1 and the “proportion of patients in quadrant Q4” value was “(0.2)”. For the same compound, the “survival 60 days post diagnosis (in words)” value with COVID-19 [2] (hospitalized COVID-19 patients) is “all 11 hospitalized patients receiving tocilizumab survived”.
